For 14 compounds, TGI and GI50 results are on record in PubChem BioAssay (NCI).

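Briefly, cells in 96-well plates were exposed to five compound concentrations for 48 h, and endpoints were estimated by linear interpolation. GI50 = concentration required for 50% inhibition of growth. The concentration for full growth arrest is given as TGI.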

Some test systems named below: 786-0 renal; CAKI-1 renal; COLO 205 colon; HT29 colon; OVCAR-8 ovarian; SF-295 CNS; SW-620 colon; TK-10 renal; UACC-257 melanoma; SF-539 CNS.
What all share (test): NCI tumour cell line growth inhibition, 48 h

Consider `CC(C)Oc1cc(O)c2c(c1)OCC=C2CCC(=O)O`, for which the TGI in the experiment on 786-0 renal was over 100 µM; in the experiment with CAKI-1 renal, over 100 µM; in the experiment on COLO 205 colon it was 31.2 µM; with HT29 colon, 53.1 µM; in the experiment with OVCAR-8 ovarian it was over 100 µM; with SF-295 CNS, over 100 µM. The results for the TGI in the experiment with SW-620 colon, in the experiment with TK-10 renal and in the experiment on UACC-257 melanoma were over 100 µM, 76.8 µM and 61.4 µM, respectively.
With `O=C1CCC(O)=C1O`, the TGI in the experiment on 786-0 renal, in the experiment with CAKI-1 renal, with COLO 205 colon, with HT29 colon, with OVCAR-8 ovarian and with SF-295 CNS was over 100 µM each time. The TGI with SF-539 CNS, in the experiment on SW-620 colon and in the experiment with TK-10 renal was over 100 µM throughout.
Consider `OC12CC/C(=N/OCc3ccccc3)CC1c1ccccc12` (stereo not given), for which the TGI in the experiment on 786-0 renal, in the experiment on CAKI-1 renal, in the experiment on COLO 205 colon, in the experiment with HT29 colon, in the experiment with OVCAR-8 ovarian and with SF-295 CNS was over 100 µM each time. Also, the TGI in the experiment on SF-539 CNS, in the experiment with TK-10 renal and in the experiment with UACC-257 melanoma was over 100 µM in each case.
For `COc1ccc(C2CC(n3nnnc3-c3ccccc3)=NN2)cc1` (stereo not given), the GI50 in the experiment on 786-0 renal was 4.61 µM; with CAKI-1 renal, 0.38 µM; in the experiment with COLO 205 colon it was 3.5 µM; in the experiment on HT29 colon, 2.82 µM; with OVCAR-8 ovarian it was 4.07 µM; in the experiment with SF-295 CNS, 0.662 µM. Further, the GI50 was 2.34 µM in the experiment on SF-539 CNS, 2.82 µM in the experiment on SW-620 colon and 2.76 µM in the experiment with UACC-257 melanoma. The TGI worked out at 37.3 µM with 786-0 renal; 2.98 µM with CAKI-1 renal; 11.7 µM with COLO 205 colon; 17.9 µM with HT29 colon; 61.7 µM in the experiment on OVCAR-8 ovarian; 3.12 µM in the experiment on SF-295 CNS. Moreover, the TGI with SF-539 CNS came to 5.87 µM; in the experiment with SW-620 colon, 25.1 µM; in the experiment on UACC-257 melanoma, 12.6 µM.
`O=c1[nH]c(=O)n(C2OC3COC2C3O)cc1F` (stereo not given): the TGI with 786-0 renal, with CAKI-1 renal, in the experiment with COLO 205 colon, in the experiment on HT29 colon, with OVCAR-8 ovarian and in the experiment with SF-295 CNS was over 100 µM in each case. Besides, the TGI in the experiment on SW-620 colon, in the experiment with TK-10 renal and in the experiment on UACC-257 melanoma was over 100 µM throughout.
For `N.N.N.N.N.N.O=N[O-].[Br-].[Co+3].[Co+3].[OH3+].[OH3+]`, the GI50 with 786-0 renal, in the experiment with COLO 205 colon, with SF-295 CNS, in the experiment with SF-539 CNS, in the experiment on SW-620 colon and in the experiment with TK-10 renal was over 100 µM in each case. For the same compound, the GI50 in the experiment on UACC-257 melanoma is over 100 µM. Further, the TGI in the experiment on 786-0 renal, in the experiment with COLO 205 colon, in the experiment with SF-295 CNS, in the experiment with SF-539 CNS, in the experiment on SW-620 colon and with TK-10 renal was over 100 µM throughout. In the experiment with UACC-257 melanoma, the TGI is over 100 µM.
Take `CN=C1SC(=Nc2ccc(N(C)C)cc2)N1C`: the TGI with 786-0 renal, with COLO 205 colon, with HT29 colon, with OVCAR-8 ovarian, in the experiment with SF-295 CNS and in the experiment with SF-539 CNS was over 100 µM each time. Moreover, the TGI with SW-620 colon, with TK-10 renal and in the experiment on UACC-257 melanoma was over 100 µM throughout.
As for `Cc1cc2c(=O)c3ccccc3[nH]c2c(C(=O)O)c1C`, the TGI in the experiment on 786-0 renal, in the experiment on CAKI-1 renal, with COLO 205 colon, with HT29 colon, in the experiment with OVCAR-8 ovarian and in the experiment on SF-295 CNS was over 100 µM in each case. Moreover, the TGI in the experiment with SF-539 CNS, in the experiment on SW-620 colon and in the experiment with UACC-257 melanoma was over 100 µM each time.
As for `Cc1c(Cl)cccc1NC(=O)CC1C(=O)Nc2ccccc2S1(=O)=O` (stereo not given), the TGI in the experiment with 786-0 renal turned out to be 32.4 µM; with CAKI-1 renal, 38.8 µM; in the experiment with HT29 colon, 38.2 µM; with OVCAR-8 ovarian it was 34.5 µM; in the experiment on SF-295 CNS it was 36.5 µM; in the experiment with SF-539 CNS, 28.7 µM. Further, the TGI is 43.7 µM with SW-620 colon, 56.6 µM in the experiment on TK-10 renal and 77.8 µM with UACC-257 melanoma.
As for `COC1CC(OC(=O)c2ccccc2)C(OC(=O)c2ccccc2)C(C)O1` (stereo not given), the TGI with 786-0 renal, in the experiment with CAKI-1 renal, in the experiment with COLO 205 colon, in the experiment on OVCAR-8 ovarian, in the experiment on SF-295 CNS and in the experiment with SF-539 CNS was over 100 µM throughout. Besides, the TGI in the experiment with SW-620 colon, with TK-10 renal and in the experiment with UACC-257 melanoma was over 100 µM each time.
For `C1=CC=C2NCCOCCNC3=CC=CC=CC3=NCCOCCN=C2C=C1`, the TGI in the experiment on 786-0 renal is over 100 µM; in the experiment with CAKI-1 renal, over 100 µM; with COLO 205 colon, over 100 µM; in the experiment on HT29 colon it was 62.6 µM; in the experiment with OVCAR-8 ovarian, over 100 µM; in the experiment with SF-295 CNS, over 100 µM. Moreover, the TGI was over 100 µM with SW-620 colon, over 100 µM with TK-10 renal and 44.6 µM in the experiment on UACC-257 melanoma.
On to `CC(=O)OC1[C@H]2c3cc4c(cc3CN3CCC(=C[C@@H]1O)C23)OCO4` (stereo not given in full), for which the TGI with 786-0 renal, with COLO 205 colon, in the experiment on HT29 colon, in the experiment with OVCAR-8 ovarian, in the experiment with SF-295 CNS and in the experiment on SF-539 CNS was over 100 µM in each case. Further, the TGI in the experiment on SW-620 colon, with TK-10 renal and in the experiment with UACC-257 melanoma was over 100 µM throughout.
`O=c1ccc(=O)c2c(=O)c3ccccc3c(=O)c1=2`: the TGI in the experiment on 786-0 renal is over 100 µM; in the experiment with CAKI-1 renal, over 100 µM; in the experiment on COLO 205 colon, over 100 µM; with OVCAR-8 ovarian it was over 100 µM; in the experiment with SF-295 CNS, over 100 µM; in the experiment with SF-539 CNS, 70.9 µM. In addition, the TGI in the experiment with SW-620 colon was over 100 µM; in the experiment with TK-10 renal, over 100 µM; in the experiment with UACC-257 melanoma, 90.4 µM.
As for `C=C1C(=O)OC2/C=C(\C=O)CC/C=C(\C)C(O)C[C@@H]12` (stereo not given in full), the TGI amounted to 11.6 µM in the experiment with 786-0 renal; 15.3 µM in the experiment with COLO 205 colon; 11.6 µM in the experiment on HT29 colon; 12 µM in the experiment with OVCAR-8 ovarian; 28.3 µM in the experiment with SF-295 CNS; 27.2 µM with SF-539 CNS. Besides, the values for the TGI in the experiment with SW-620 colon, in the experiment on TK-10 renal and in the experiment on UACC-257 melanoma were 10.9 µM, 24.7 µM and 18 µM, respectively.
